Tests used:
Assay type in all cases: in vivo
Triticum aestivum = assay: Crop compatibility post-emergence (greenhouse pot trial); conditions: application rate 20 g/ha
In short: (§1)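 Crop seeds sown in sandy loam and grown in the greenhouse 2 to 3 weeks were treated at the one-leaf stage. WP or EC formulations were sprayed as aqueous suspension/emulsion with 0.5% additive at 600 L/ha. Damage was scored visually about 3 weeks later versus untreated controls (0% = like control, 100% = dead).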

Zea mays [1] = assay: as above
In short: as §1

Oryza sativa [2] = assay: as above; conditions: application rate 20 g/ha
In short: as §1

Zea mays [3] = assay: Crop compatibility pre-emergence (greenhouse pot trial); conditions: effect vs untreated controls
In short: (§2)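 Seeds sown in pots and covered with soil; compounds formulated as WP or EC applied pre-emergence to the soil surface as aqueous suspension/emulsion with 0.5% additive at 600 L/ha water. Plants kept in greenhouse; crop damage scored visually after about 3 weeks as % versus untreated controls (0% = like control, 100% = dead).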

Oryza sativa [4] = assay: as above; conditions: application rate 80 g/ha, effect vs untreated controls
In short: as §2

Veronica persica [5] = assay: Herbicidal action post-emergence (greenhouse pot trial)
In short: (§3)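 Visual efficacy score after ~3 wk in greenhouse vs untreated control; 100% = plants dead, 0% = like control. Spray: aqueous suspension/emulsion of WP or EC, 0.5% additive, 600 L/ha water, ≤80 g/ha. Plants in sandy loam pots, treated at one-leaf stage, 2–3 wk post-sowing.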

Matricaria inodora [6] = assay: as above; conditions: scored visually after about 3 weeks vs untreated controls
In short: as §3

Polygonum convolvulus = assay: as above; conditions: scored visually after about 3 weeks vs untreated controls
In short: as §3

Pharbitis purpurea [7] = assay: as above
In short: as §3

Echinochloa crus-galli [8] = assay: as above; conditions: scored visually after about 3 weeks vs untreated controls
In short: as §3

Abutilon theophrasti [9] = assay: as above; conditions: scored visually after about 3 weeks vs untreated controls
In short: as §3

Setaria viridis [10] = assay: as above; conditions: scored visually after about 3 weeks vs untreated controls
In short: as §3

Amaranthus retroflexus [11] = assay: as above; conditions: scored visually after about 3 weeks vs untreated controls
In short: as §3

Viola tricolor [12] = assay: as above
In short: as §3

Matricaria inodora [13] = assay: Herbicidal action pre-emergence (greenhouse pot trial); conditions: scored after about 3 weeks
In short: (§4)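 Efficacy scored visually as percent of untreated control (0% = like control, 100% = dead) roughly 3 weeks after treatment. Compounds, as WP or EC plus 0.5% additive in 600 L/ha water, were applied at up to 320 g/ha to soil surface covering freshly sown seeds.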

Abutilon theophrasti [14] = assay: as above; conditions: scored after about 3 weeks
In short: as §4

Amaranthus retroflexus [15] = assay: as above; conditions: scored after about 3 weeks
In short: as §4

Glycine max [16] = assay: Crop compatibility post-emergence (greenhouse pot trial); conditions: application rate 20 g/ha
In short: as §1

Glycine max [17] = assay: Crop compatibility pre-emergence (greenhouse pot trial); conditions: application rate 80 g/ha, effect vs untreated controls
In short: as §2

Stellaria media [18] = assay: Herbicidal action post-emergence (greenhouse pot trial); conditions: scored visually after about 3 weeks vs untreated controls
In short: as §3

Lolium rigidum [19] = assay: as above; conditions: application rate 80 g/ha, scored visually after about 3 weeks vs untreated controls
In short: as §3

Hordeum murinum [20] = assay: as above; conditions: application rate 80 g/ha, scored visually after about 3 weeks vs untreated controls
In short: as §3

Avena fatua [21] = assay: as above; conditions: application rate 80 g/ha, scored visually after about 3 weeks vs untreated controls
In short: as §3

Veronica persica [22] = assay: Herbicidal action pre-emergence (greenhouse pot trial); conditions: application rate 320 g/ha
In short: as §4

Stellaria media [23] = assay: as above; conditions: application rate 320 g/ha, scored after about 3 weeks
In short: as §4

Lolium rigidum [24] = assay: as above; conditions: application rate 320 g/ha
In short: as §4

Alopecurus myosuroides [25] = assay: as above; conditions: application rate 320 g/ha, scored after about 3 weeks
In short: as §4

Hordeum murinum [26] = assay: as above; conditions: application rate 320 g/ha
In short: as §4

Cyperus esculentus = assay: as above; conditions: application rate 320 g/ha
In short: as §4

Pharbitis purpurea [27] = assay: as above; conditions: application rate 320 g/ha
In short: as §4

Echinochloa crus-galli [28] = assay: as above; conditions: application rate 320 g/ha, scored after about 3 weeks
In short: as §4

Avena fatua [29] = assay: as above; conditions: application rate 320 g/ha
In short: as §4

Setaria viridis [30] = assay: as above; conditions: application rate 320 g/ha, scored after about 3 weeks
In short: as §4

Viola tricolor [31] = assay: as above; conditions: application rate 320 g/ha, scored after about 3 weeks
In short: as §4

Alopecurus myosuroides [32] = assay: Herbicidal action post-emergence (greenhouse pot trial); conditions: application rate 80 g/ha, scored visually after about 3 weeks vs untreated controls
In short: as §3

Digitaria sanguinalis = assay: as above; conditions: application rate 20 g/ha
In short: as §3

CC(Sc1cc(-n2c(=O)cc(C(F)(F)F)n(C)c2=O)c(F)cc1Cl)C(=O)OCC1CCCOC1 (centres unmarked) [I.1-92]
80%: Matricaria inodora (Efficacy in %) (Matricaria inodora [6]; application rate 20 g/ha)
100%: Veronica persica (Efficacy in %) (Veronica persica [5]; application rate 20 g/ha) | Polygonum convolvulus (Efficacy in %) (Polygonum convolvulus; application rate 20 g/ha) | Pharbitis purpurea (Efficacy in %) (Pharbitis purpurea [7]; application rate 20 g/ha) | Echinochloa crus-galli (Efficacy in %) (Echinochloa crus-galli [8]; application rate 20 g/ha) | Abutilon theophrasti (Efficacy in %) (Abutilon theophrasti [9]; application rate 20 g/ha) | Setaria viridis (Efficacy in %) (Setaria viridis [10]; application rate 20 g/ha) | Amaranthus retroflexus (Efficacy in %) (Amaranthus retroflexus [11]; application rate 20 g/ha) | Viola tricolor (Efficacy in %) (Viola tricolor [12]; application rate 20 g/ha) | Matricaria inodora (Efficacy in %) (Matricaria inodora [13]; application rate 80 g/ha) | Abutilon theophrasti (Efficacy in %) (Abutilon theophrasti [14]; application rate 80 g/ha) | Amaranthus retroflexus (Efficacy in %) (Amaranthus retroflexus [15]; application rate 80 g/ha)
20%: Zea mays (Efficacy in %) (Zea mays [1]; application rate 20 g/ha)
10%: Triticum aestivum (Efficacy in %) (Triticum aestivum) | Oryza sativa (Efficacy in %) (Oryza sativa [4])
0%: Oryza sativa (Efficacy in %) (Oryza sativa [2]) | Zea mays (Efficacy in %) (Zea mays [3]; application rate 80 g/ha)

CC(Sc1cc(-n2c(=O)cc(C(F)(F)F)n(C)c2=O)c(F)cc1Cl)C(=O)OCC1CCOC1 (centres unmarked) [I.1-72]
20%: Zea mays (Efficacy in %) (Zea mays [1]; application rate 20 g/ha) | Glycine max (Efficacy in %) (Glycine max [17]) | Zea mays (Efficacy in %) (Zea mays [3]; application rate 80 g/ha)
100%: Veronica persica (Efficacy in %) (Veronica persica [5]; application rate 80 g/ha) | Stellaria media (Efficacy in %) (Stellaria media [18]; application rate 80 g/ha) | Matricaria inodora (Efficacy in %) (Matricaria inodora [6]; application rate 80 g/ha) | Lolium rigidum (Efficacy in %) (Lolium rigidum [19]) | Polygonum convolvulus (Efficacy in %) (Polygonum convolvulus; application rate 80 g/ha) | Pharbitis purpurea (Efficacy in %) (Pharbitis purpurea [7]; application rate 80 g/ha) | Echinochloa crus-galli (Efficacy in %) (Echinochloa crus-galli [8]; application rate 80 g/ha) | Abutilon theophrasti (Efficacy in %) (Abutilon theophrasti [9]; application rate 80 g/ha) | Setaria viridis (Efficacy in %) (Setaria viridis [10]; application rate 80 g/ha) | Amaranthus retroflexus (Efficacy in %) (Amaranthus retroflexus [11]; application rate 80 g/ha) | Viola tricolor (Efficacy in %) (Viola tricolor [12]; application rate 80 g/ha) | Veronica persica (Efficacy in %) (Veronica persica [22]) | Stellaria media (Efficacy in %) (Stellaria media [23]) | Matricaria inodora (Efficacy in %) (Matricaria inodora [13]; application rate 320 g/ha) | Lolium rigidum (Efficacy in %) (Lolium rigidum [24]) | Pharbitis purpurea (Efficacy in %) (Pharbitis purpurea [27]) | Echinochloa crus-galli (Efficacy in %) (Echinochloa crus-galli [28]) | Avena fatua (Efficacy in %) (Avena fatua [29]) | Abutilon theophrasti (Efficacy in %) (Abutilon theophrasti [14]; application rate 320 g/ha) | Setaria viridis (Efficacy in %) (Setaria viridis [30]) | Amaranthus retroflexus (Efficacy in %) (Amaranthus retroflexus [15]; application rate 320 g/ha) | Viola tricolor (Efficacy in %) (Viola tricolor [31])
0%: Triticum aestivum (Efficacy in %) (Triticum aestivum)
80%: Hordeum murinum (Efficacy in %) (Hordeum murinum [20]) | Avena fatua (Efficacy in %) (Avena fatua [21]) | Cyperus esculentus (Efficacy in %) (Cyperus esculentus)
10%: Glycine max (Efficacy in %) (Glycine max [16])
90%: Alopecurus myosuroides (Efficacy in %) (Alopecurus myosuroides [25]) | Hordeum murinum (Efficacy in %) (Hordeum murinum [26])

CC(Sc1cc(-n2c(=O)cc(C(F)(F)F)n(C)c2=O)c(F)cc1Cl)C(=O)NCC1CCCO1 (centres unmarked) [I.1-221]
100%: Veronica persica (Efficacy in %) (Veronica persica [5]; application rate 80 g/ha) | Stellaria media (Efficacy in %) (Stellaria media [18]; application rate 80 g/ha) | Matricaria inodora (Efficacy in %) (Matricaria inodora [6]; application rate 80 g/ha) | Polygonum convolvulus (Efficacy in %) (Polygonum convolvulus; application rate 80 g/ha) | Pharbitis purpurea (Efficacy in %) (Pharbitis purpurea [7]; application rate 80 g/ha) | Echinochloa crus-galli (Efficacy in %) (Echinochloa crus-galli [8]; application rate 80 g/ha) | Abutilon theophrasti (Efficacy in %) (Abutilon theophrasti [9]; application rate 80 g/ha) | Setaria viridis (Efficacy in %) (Setaria viridis [10]; application rate 80 g/ha) | Amaranthus retroflexus (Efficacy in %) (Amaranthus retroflexus [11]; application rate 80 g/ha) | Viola tricolor (Efficacy in %) (Viola tricolor [12]; application rate 80 g/ha) | Stellaria media (Efficacy in %) (Stellaria media [23]) | Matricaria inodora (Efficacy in %) (Matricaria inodora [13]; application rate 320 g/ha) | Lolium rigidum (Efficacy in %) (Lolium rigidum [24]) | Hordeum murinum (Efficacy in %) (Hordeum murinum [26]) | Cyperus esculentus (Efficacy in %) (Cyperus esculentus) | Pharbitis purpurea (Efficacy in %) (Pharbitis purpurea [27]) | Echinochloa crus-galli (Efficacy in %) (Echinochloa crus-galli [28]) | Avena fatua (Efficacy in %) (Avena fatua [29]) | Abutilon theophrasti (Efficacy in %) (Abutilon theophrasti [14]; application rate 320 g/ha) | Setaria viridis (Efficacy in %) (Setaria viridis [30]) | Amaranthus retroflexus (Efficacy in %) (Amaranthus retroflexus [15]; application rate 320 g/ha) | Viola tricolor (Efficacy in %) (Viola tricolor [31])
90%: Lolium rigidum (Efficacy in %) (Lolium rigidum [19]) | Alopecurus myosuroides (Efficacy in %) (Alopecurus myosuroides [32]) | Alopecurus myosuroides (Efficacy in %) (Alopecurus myosuroides [25])
80%: Hordeum murinum (Efficacy in %) (Hordeum murinum [20]) | Avena fatua (Efficacy in %) (Avena fatua [21])
20%: Triticum aestivum (Efficacy in %) (Triticum aestivum)
0%: Oryza sativa (Efficacy in %) (Oryza sativa [2]) | Zea mays (Efficacy in %) (Zea mays [3]; application rate 20 g/ha)
10%: Zea mays (Efficacy in %) (Zea mays [1]; application rate 5 g/ha)

CC(Sc1cc(-n2c(=O)cc(C(F)(F)F)n(C)c2=O)c(F)cc1Cl)C(=O)OC1CCCOC1 (centres unmarked) [I.1-126]
10%: Glycine max (Efficacy in %) (Glycine max [17])
0%: Oryza sativa (Efficacy in %) (Oryza sativa [2]) | Zea mays (Efficacy in %) (Zea mays [3]; application rate 80 g/ha)
20%: Triticum aestivum (Efficacy in %) (Triticum aestivum) | Zea mays (Efficacy in %) (Zea mays [1]; application rate 20 g/ha) | Oryza sativa (Efficacy in %) (Oryza sativa [4])
80%: Digitaria sanguinalis (Efficacy in %) (Digitaria sanguinalis)
100%: Veronica persica (Efficacy in %) (Veronica persica [5]; application rate 20 g/ha) | Stellaria media (Efficacy in %) (Stellaria media [18]; application rate 20 g/ha) | Pharbitis purpurea (Efficacy in %) (Pharbitis purpurea [7]; application rate 20 g/ha) | Abutilon theophrasti (Efficacy in %) (Abutilon theophrasti [9]; application rate 20 g/ha) | Setaria viridis (Efficacy in %) (Setaria viridis [10]; application rate 20 g/ha) | Amaranthus retroflexus (Efficacy in %) (Amaranthus retroflexus [11]; application rate 20 g/ha) | Viola tricolor (Efficacy in %) (Viola tricolor [12]; application rate 20 g/ha) | Matricaria inodora (Efficacy in %) (Matricaria inodora [13]; application rate 80 g/ha) | Abutilon theophrasti (Efficacy in %) (Abutilon theophrasti [14]; application rate 80 g/ha) | Amaranthus retroflexus (Efficacy in %) (Amaranthus retroflexus [15]; application rate 80 g/ha)
90%: Matricaria inodora (Efficacy in %) (Matricaria inodora [6]; application rate 20 g/ha)
